The record followed here is patent US10098900B2, “Pharmaceutical compositions and their use for treatment of cancer and autoimmune diseases” (ZHEJIANG DTRM BIOPHARMA CO. LTD., priority 2015, dated 2018).

Assay [1] concerns TMD-8 cell line. Put plainly: Inhibition assay of tumor cell activity (cell viability), TMD-8. The class given is cell-based, human. The following applies: individual compound; for inhibition at 0.01 µM / inhibition at 0.1 µM / inhibition at 1 µM / inhibition at 10 µM / inhibition at 100 µM: Homo sapiens, TMD8, 48 h, read-out: Inh % on TMD-8 cell line (AVG); for Inh % on TMD-8 cell line (AVG): 48 h. Here is the method:
Inhibition Assay of Tumor Cell Activity:
Tumor cells (TMD-8, DoHH2 and WSU-DLCL2) were transferred and attached to 96-well plates. After one night, blank buffer and selected concentrations (0.01 nM-100 μM) of the test compound solution were added. After 48 hours incubation, CellTiter-Go was added to lyse the cells. Recording luminescent signal and calculate the percent inhibition of cell viability

Assay [2] has as its system TMD-8 lymphoma xenograft. Put plainly: Inhibition of tumor growth in vivo, TMD-8 lymphoma xenograft SCID mouse model. The following applies: for Antitumor effect (%): TMD-8, Oral, BID. How it is done: Inhibition Study of Tumor Growth In Vivo:
SCID mice or nude mice (weighing about 18 g at the beginning of the experiment) were randomly divided into groups by the software in order to achieve close average weights between groups and control the bias within the allowable range. The mice were injected BTK cell lines (TMD-8, WSU-DLCL2 and DoHH-2) for tumor formation. Inhibitors were administered orally once or twice a day, a total of 14 days, 21 days or 28 days. Body weights and tumor volume were recorded.
Xenograft Tumor Models Inoculated with TMD-8, or DoHH2, or WSU-DLCL2 Tumor Cell Lines:
TMD-8 is a sensitive human diffuse large B-cell lymphoma cell line, and DoHH2 is a more difficult to treat human follicular lymphoma cell line, while WSU-DLCL2 is a multi-drug resistant (MDR) human non-Hodgkin's lymphoma cell line. Drug combination therapies provide better efficacies in all three tumor models than single targeted agent alone.
The TMD-8, DoHH2, WSU-DLCL2 tumor cells were maintained in vitro as a suspension culture in RPMI-1640 medium supplemented with 10% heat inactivated fetal calf serum at 37° C. in an atmosphere of 5% CO2 in air. The tumor cells were routinely subcultured twice weekly. The cells growing in an exponential growth phase were harvested and counted for tumor inoculation. Each mouse was inoculated subcutaneously at the right flank with the tumor cells (10×10^6) in 0.2 ml of PBS with Matrigel (1:1) for tumor development. The treatments were started after the average tumor size reached approximately 100-200 mm^3. Each group consisted of 6-10 tumor-bearing mice. The testing article (vehicle, compound or combination) was orally administrated to the mice according to the predetermined doses for 14-days or 21-days. Animal body weight and tumor volume were measured every 2- or 3-days throughout the treatment.

Assay [3] deals with adjuvant-induced arthritis. Put plainly: Adjuvant-induced arthritis (AA/AIA) model in female Lewis rats (paw volume, clinical score, histopathology). Further details: Pathological score (Mean ± SEM), Inflammatory cell infiltration / Pathological score (Mean ± SEM), Pannus growth / Pathological score (Mean ± SEM), Cartilage injury / Pathological score (Mean ± SEM), Bone resorption / Pathological score (Mean ± SEM), Total: scale not given here. The class given is in vivo, rat. The following applies: for Paw volume (mL), Mean: 3 mg/kg BID (positive control). From the text:
Adjuvant-Induced Arthritis AA Model: […] All rats except the normal group were immunized with complete Freund's adjuvant (CFA) subcutaneously at the left hind paw to induce arthritis at day 0. […] The treatments were given orally for 3 consecutive weeks. The body weight, paw volume and clinical score were monitored every other day after day 13 throughout the course of the study. At the terminal point, right hind paws were collected for histopathology analysis with H.E. staining.

The test system of assay [4] is collagen induced arthritis. Briefly: Collagen-induced arthritis (CIA) model in male DBA/1 mice (clinical score, histopathology). The class given is in vivo, mouse. Further details: Clinical Score (Mean) / Pathological score (Mean ± SEM), Inflammatory cell infiltration / Pathological score (Mean ± SEM), Pannus growth / Pathological score (Mean ± SEM), Cartilage injury / Pathological score (Mean ± SEM), Bone resorption / Pathological score (Mean ± SEM), Total: scale not given here. The settings on record: CIA study; for Clinical Score (Mean): Dexamethasone 0.2 mg/kg. Here is the method: Collagen-Induced Arthritis (CIA) Model: The combination of Compounds 3 and 12 was evaluated in collagen induced arthritis (CIA) mouse model in Male DBA/1 mice. The animals were divided into 8 groups, including a normal, a vehicle, […] treatment groups: […] On the same day, immunized mice were randomly divided into 7 groups: […] The treatments were given orally for 2 consecutive weeks. Body weight and clinical score were monitored through the study (recorded three times a week started after second immunization). At the end of the study, animals were euthanized and both hind paws were collected for histopathology analysis.

[5] abbreviates: Left hind paw, Dexamethasone 0.2 mg/kg QD.
Where [6] appears, read: Right hind paw, Dexamethasone 0.2 mg/kg QD.

Marks after values point to notes of the source that are not given here.

As to `[2H]/C=C\C(=O)N1CC[C@@H](n2nc(-c3ccc(Oc4c(F)c(F)cc(F)c4F)cc3F)c3c(N)ncnc32)C1` [Compound 7], the inhibition at 0.01 µM in assay [1] (0.01 uM (10 nM)) was determined as 33.9%. Also, in assay [1] (0.1 uM (100 nM)), the inhibition at 0.1 µM is 58.7%. Moreover, the inhibition at 1 µM in assay [1] (1 uM (1,000 nM)) is 58.6%. In assay [1], the inhibition at 10 µM amounted to 62.9% and the inhibition at 100 µM turned out to be 99.3%.
Consider `CC[C@H](Nc1ncnc2[nH]cnc12)c1nc2cccc(F)c2c(=O)n1-c1ccccc1` [Compound 8, Idelalisib], for which the “Antitumor effect (%)” value in assay [2] (FIG. 3, 21 days, 10 mg/kg) turned out to be 26%. In addition, the “Antitumor effect (%)” value in assay [2] (FIG. 12, 14 days, 10 mg/kg) came out at 48%. In addition, the inhibition at 0.01 µM in assay [1] (0.01 uM (10 nM)) is 29.4%. In addition, the inhibition at 0.1 µM in assay [1] (0.1 uM (100 nM)) was 48.8%. Besides, the inhibition at 1 µM in assay [1] (1 uM (1,000 nM)) came to 68.9%. In addition, in assay [1], the inhibition at 10 µM turned out to be 87.7% and the inhibition at 100 µM was found to be 96.8%.
Turning to `C=CC(=O)N1CCC[C@@H](n2nc(-c3ccc(Oc4ccccc4)cc3)c3c(N)ncnc32)C1` [Compound 9, Ibrutinib], the inhibition at 0.01 µM in assay [1] (0.01 uM (10 nM)) turned out to be 56.2%. For the same compound, the inhibition at 0.1 µM in assay [1] (0.1 uM (100 nM)) was 59.1%. Besides, the inhibition at 1 µM in assay [1] (1 uM (1,000 nM)) came to 66.1%. In assay [1], the inhibition at 10 µM was determined as 81.4% and the inhibition at 100 µM was 99.9%.
For `N#CC[C@H](C1CCCC1)n1cc(-c2ncnc3[nH]ccc23)cn1` [Compound 10, Ruxolitinib], the inhibition at 0.01 µM in assay [1] (0.01 uM (10 nM)) stood at 0.05%. Also, in assay [1] (0.1 uM (100 nM)), the inhibition at 0.1 µM is -5.53%. Moreover, the inhibition at 1 µM in assay [1] (1 uM (1,000 nM)) was found to be 101%.
In the case of `C[C@@H]1CCN(C(=O)CC#N)C[C@@H]1N(C)c1ncnc2[nH]ccc12` [Compound 11, Tofactinib], the “Paw volume (mL), Mean” value was 1.00 mL in assay [3] (Day 0); 1.54*** mL in assay [3] (Day 17); 1.37*** mL in assay [3] (Day 26); 1.33*** mL in assay [3] (Day 28); 1.23*** mL in assay [3] (Day 31); 1.23*** mL in assay [3] (Day 33). In addition, the “Pathological score (Mean ± SEM), Bone resorption” value in assay [3] (AA study, 11, 3 mg/kg) amounted to 0.5 ± 0.22. Also, the “Pathological score (Mean ± SEM), Cartilage injury” value in assay [3] (AA study, 11, 3 mg/kg) worked out at 0.2 ± 0.20. Besides, the “Pathological score (Mean ± SEM), Inflammatory cell infiltration” value in assay [3] (AA study, 11, 3 mg/kg) came to 1.9 ± 0.18. Also, the “Pathological score (Mean ± SEM), Pannus growth” value in assay [3] (AA study, 11, 3 mg/kg) was determined as 0.4 ± 0.22. Further, the “Pathological score (Mean ± SEM), Total” value in assay [3] (AA study, 11, 3 mg/kg) came to 3.0 ± 0.73. For the same compound, the “Inh % on TMD-8 cell line (AVG)” value is given as 6.02% in assay [1] (0.01 uM (10 nM)), 1.31% in assay [1] (0.1 uM (100 nM)) and 6.66% in assay [1] (1 uM (1,000 nM)).
With `CC1(C)CCC(CN2CCN(c3ccc(C(=O)NS(=O)(=O)c4ccc(NCC5CCOCC5)c([N+](=O)[O-])c4)c(Oc4cnc5[nH]ccc5c4)c3)CC2)=C(c2ccc(Cl)cc2)C1` [Compound 12, Venetoclax], the “Antitumor effect (%)” value in assay [2] (FIG. 12, 14 days, 5 mg/kg) stood at 12%. Besides, in assay [1] (0.01 uM (10 nM)), the inhibition at 0.01 µM was found to be 11.1% and the “Inh % on TMD-8 cell line (AVG)” value is recorded as 11.12%. For the same compound, in assay [1] (0.1 uM (100 nM)), the inhibition at 0.1 µM is 18.8% and the “Inh % on TMD-8 cell line (AVG)” value was 18.81%. Besides, in assay [1] (1 uM (1,000 nM)), the inhibition at 1 µM amounted to 37.6% and the “Inh % on TMD-8 cell line (AVG)” value stood at 37.55%.
In the case of `Cc1cc(O)c(-c2ccc([C@@H](C)CN(C)C)cc2)c2c1[nH]c(=O)c1sccc12` [Compound 13, (R)-9-(4-(1-(dimethylamino)propan-2-yl)phenyl)-8-hydroxy-6-methylthieno[2,3-c]quinolin-4(5H)-one], the inhibition at 0.01 µM in assay [1] (0.01 uM (10 nM)) was 8.71%. Besides, in assay [1] (0.1 uM (100 nM)), the inhibition at 0.1 µM worked out at 49.1%. Moreover, the inhibition at 1 µM in assay [1] (1 uM (1,000 nM)) is 101%.
In the case of `CO[C@H]1C[C@@H]2CC[C@@H](C)[C@@](O)(O2)C(=O)C(=O)N2CCCC[C@H]2C(=O)O[C@H]([C@H](C)C[C@@H]2CC[C@@H](OCCO)[C@H](OC)C2)CC(=O)[C@H](C)/C=C(\C)[C@@H](O)[C@@H](OC)C(=O)[C@H](C)C[C@H](C)/C=C/C=C/C=C/1C` [Compound 14, Everolimus], the tumor disappearance entry in assay [2] (TMD-8 mice model, text) is recorded as “tumor disappearance”.
Take `Nc1cccc2c1CN(C1CCC(=O)NC1=O)C2=O` (stereo not drawn) [Compound 16, Lenalidomide]: the “Antitumor effect (%)” value in assay [2] (FIG. 4, 21 days, 10 mg/kg) is on record as 16%; in assay [2] (FIG. 4, 21 days, 30 mg/kg) it was 42%. Moreover, the inhibition at 0.01 µM in assay [1] (0.01 uM (10 nM)) was found to be 7.43%. The inhibition at 0.1 µM in assay [1] (0.1 uM (100 nM)) amounted to 21%. The inhibition at 1 µM in assay [1] (1 uM (1,000 nM)) was 94.2%.
Take `CO[C@H]1C[C@@H]2CC[C@@H](C)[C@@](O)(O2)C(=O)C(=O)N2CCCC[C@H]2C(=O)O[C@H]([C@H](C)C[C@@H]2CC[C@@H](O)[C@H](OC)C2)CC(=O)[C@H](C)/C=C(\C)[C@@H](O)[C@@H](OC)C(=O)[C@H](C)C[C@H](C)/C=C/C=C/C=C/1C` [Compound 17, Rapamycin]: the inhibition at 0.01 µM in assay [1] (0.01 uM (10 nM)) was 58.7%. Also, the inhibition at 0.1 µM in assay [1] (0.1 uM (100 nM)) amounted to 59.8%. Also, the inhibition at 1 µM in assay [1] (1 uM (1,000 nM)) turned out to be 65%.
As to `CN(Cc1cnc2nc(N)nc(N)c2n1)c1ccc(C(=O)N[C@@H](CCC(=O)O)C(=O)O)cc1` [Compound 18, Methotrexate], the figures for the “Inh % on TMD-8 cell line (AVG)” value in assay [1] (0.01 uM (10 nM)), in assay [1] (0.1 uM (100 nM)) and in assay [1] (1 uM (1,000 nM)) were −8.45%, 32.04% and 39.55%, respectively.
Regarding `C[C@@H]1C[C@H]2[C@@H]3CCC4=CC(=O)C=C[C@]4(C)[C@@]3(F)[C@@H](O)C[C@]2(C)[C@@]1(O)C(=O)CO` [Dexamethasone], the “Pathological score (Mean ± SEM), Total” value in assay [4] (Dexamethasone 0.2 mg/kg QD) stood at 0.00 ± 0.00. Also, the “Pathological score (Mean ± SEM), Bone resorption” value in assay [4] (setting [5]) and in assay [4] (setting [6]) was 0.00 ± 0.00 in each case. In addition, the “Pathological score (Mean ± SEM), Cartilage injury” value in assay [4] (setting [5]) and in assay [4] (setting [6]) was 0.00 ± 0.00 each time. Moreover, the “Pathological score (Mean ± SEM), Inflammatory cell infiltration” value in assay [4] (setting [5]) and in assay [4] (setting [6]) was 0.00 ± 0.00 each time. The “Pathological score (Mean ± SEM), Pannus growth” value in assay [4] (setting [5]) and in assay [4] (setting [6]) was 0.00 ± 0.00 throughout. Moreover, the “Clinical Score (Mean)” value in assay [4] (day 21) was 0.00; in assay [4] (day 32) it was 0.60***; in assay [4] (day 39), 0.40***; in assay [4] (day 42), 0.20***.
